Data: ChEMBL document CHEMBL5728097, “Amino pyrazolopyrimidine compound used as neurotrophic factor tyrosine kinase receptor inhibitor” (2020)

molecular target: High affinity nerve growth factor receptor (Homo sapiens, UniProt P04629); assay: Inhibitory Activity Assay: TrkA, TrkB and TrkC:A testing platform for TrkA, TrkB and TrkC kinase activity was established based on Homogeneous Time-Resolved Fluorescence (HTRF) assay, and the activities of the compounds were tested using the platform. The compounds were subjected to three-fold gradient dilution with 100% DMSO with a starting concentration of 1 mM (11 concentrations in total). 4 μL of diluted sample for each concentration was added to 96 μL of reaction buffer (50 mM HEPES, pH7.4, 5 mM MgCl2, 1 mM NaVO3, 0.001% Tween-20, 0.01% BSA and 1 mM DTT) and mixed homogeneously to be used as a 4* compound. The reaction buffer was used to formulate 2* TrkA, TrkB and TrkC kinases (purchased from Carna Biosciences 08-186, 08-187, 08-197, and the final concentrations thereof were 0.5 nM, 0.1 nM, and 1 nM, respectively) and 4* substrate mixture (ATP+TK peptide) (wherein the final concentrations of ATP were 40 μM, 50 μM, and 20 μM, respectively; TK peptide, HTRF® KinEASE™-TK, was purchased from Cisbio, and the final concentration thereof was 100 nM) for use. 2.5 μL of the 4* compound was added to a 384-well plate (OptiPlate-384, purchased from PerkinElmer), and then 5 μL of the 2* TrkA, TrkB and TrkC kinases were added, and mixed homogeneously by centrifugation. Then 2.5 μL of the 4* substrate mixture was added to initiate the reaction (the total reaction volume is 10 μL). The 384-well plate was placed in an incubator and incubated for 60 min at 23° C. Then the reaction was terminated by adding 5 μL of Eu3+ cryptate-labeled anti-phosphotyrosine antibody (HTRF® KinEASE™-TK, purchased from Cisbio), and 5 μL of Streptavidin-XL-665 (HTRF® KinEASE™-TK, purchased from Cisbio). After incubated for 1 hr in the incubator, the fluorescence values were read on Envision (purchased from PerkinElmer).
Sequence (P04629 whole entry): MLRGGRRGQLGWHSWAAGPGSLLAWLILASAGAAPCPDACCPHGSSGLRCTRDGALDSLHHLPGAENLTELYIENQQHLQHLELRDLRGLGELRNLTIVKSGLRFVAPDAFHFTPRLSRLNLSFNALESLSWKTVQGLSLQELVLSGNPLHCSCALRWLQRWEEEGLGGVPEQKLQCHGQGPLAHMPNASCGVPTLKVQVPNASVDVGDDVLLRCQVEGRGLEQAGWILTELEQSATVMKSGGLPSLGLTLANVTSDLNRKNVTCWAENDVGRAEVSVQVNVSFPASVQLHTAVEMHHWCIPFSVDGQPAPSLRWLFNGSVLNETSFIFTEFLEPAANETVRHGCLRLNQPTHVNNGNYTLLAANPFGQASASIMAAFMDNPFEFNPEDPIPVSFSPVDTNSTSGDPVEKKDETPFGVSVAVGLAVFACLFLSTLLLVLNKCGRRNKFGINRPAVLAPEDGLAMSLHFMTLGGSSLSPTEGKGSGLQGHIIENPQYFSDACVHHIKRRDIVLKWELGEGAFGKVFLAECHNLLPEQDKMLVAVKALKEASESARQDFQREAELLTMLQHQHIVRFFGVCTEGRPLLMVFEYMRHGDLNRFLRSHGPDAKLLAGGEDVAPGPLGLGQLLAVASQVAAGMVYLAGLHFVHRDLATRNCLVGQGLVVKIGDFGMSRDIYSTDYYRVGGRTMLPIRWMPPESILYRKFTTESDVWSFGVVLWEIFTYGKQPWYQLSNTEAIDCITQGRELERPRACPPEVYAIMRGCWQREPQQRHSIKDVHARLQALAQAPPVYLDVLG

SMILES	IC50 [nM]
NC(=O)c1c(N)nn2ccc(N3C[C@@H](O)C[C@@H]3c3cc(F)ccc3F)nc12	< 25
CCOC(=O)c1c(N)nn2ccc(N3C[C@@H](O)CC3c3cc(F)ccc3F)nc12 (stereo partly specified)	< 500
Nc1nn2ccc(N3CCC[C@@H]3c3cc(F)ccc3F)nc2c1Br	< 25
CC(C)(CO)ONC(=O)c1c(N)nn2ccc(N3CCC[C@@H]3c3cc(F)ccc3F)nc12	< 1
CCOC(=O)c1c(N)nn2ccc(N3C[C@H](O)CC3c3cc(F)ccc3F)nc12 (stereo partly specified)	< 25
CC(C)(C)ONC(=O)c1c(N)nn2ccc(N3CCC[C@@H]3c3cc(F)ccc3F)nc12	< 1
CN(C)C(=O)c1c(N)nn2ccc(N3CCC[C@@H]3c3cc(F)ccc3F)nc12	< 25

More lines, now with the values ahead:

IC50 [nM]	SMILES
< 1	N#Cc1c(N)nn2ccc(N3C[C@@H](F)C[C@@H]3c3cc(F)ccc3F)nc12
< 1	Nc1nn2ccc(N3CCC[C@@H]3c3cc(F)ccc3F)nc2c1C(=O)NOCCO
< 1	CC1(C)OCC(CONC(=O)c2c(N)nn3ccc(N4CCC[C@@H]4c4cc(F)ccc4F)nc23)O1 (stereo partly specified)
< 1	Nc1nn2ccc(N3CCC[C@@H]3c3cc(F)ccc3F)nc2c1C(=O)NC1CCC(O)CC1 (stereo partly specified)
